Reference: patent US5492822A, “Method for recovering purified 100,000 dalton molecular weight fraction of human pancreatic cholesterol esterase” (Lange, III; Louis G., priority 1995, dated 1996)

Tests used:
[1] = tested on: human pancreatic cholesterol esterase; assay: Binding of 125I-cholesterol esterase to small intestine vesicles and its displacement
Protocol: (§1) Vesicles contained 1.0 mg protein/ml, 30 ug total cholesterol/mg protein and 50 ug endogenous heparin/mg protein. ^125 I-cholesterol esterase (100K or 67K form) was added (0 to 400 pmol; 2,000 dpm/pmol) to 100 ug of protein of small intestine vesicles in 10 mM Tris-Cl, pH 7.2 for 15 min. at 37°. The concentration of offered ^125 I-cholesterol esterase varied between 10 nM and 1 uM. Experiments were performed utilizing 1% blotto to decrease nonspecific protein binding to the vesicles. After the 15 minute incubation at 37°, the reaction was quenched and the assay mixtures were filtered through wells of a Millipore system containing 0.2 micron pore filters presoaked in buffer. The filtrate was-collected to assess free (unbound) enzyme, and the filters were then immediately washed with 15 ml of cold buffer and counted for ^125 I. Total binding was defined as ^125 I-dpm bound to filter paper minus ^125 I-dpm detected in the same reaction without vesicles (background). Nonspecific binding (radioactivity bound to the vesicles in the presence of excess cold ligand) was quantitated as the amount of ^125 I-cholesterol esterase binding in the presence of a 1000-fold molar excess of unlabeled cholesterol esterase as described above. Specific binding is defined as the difference between total bound dpm and nonspecific-bound dpm (converted to moles bound by dividing by the SRA).

[2] = biological target: T1, human pancreatic cholesterol esterase (Homo sapiens, UniProt P19835); assay: as above
T1 construct: from tissue; host or cells: human pancreas (autopsy)
T1 sequence (P19835 21-753): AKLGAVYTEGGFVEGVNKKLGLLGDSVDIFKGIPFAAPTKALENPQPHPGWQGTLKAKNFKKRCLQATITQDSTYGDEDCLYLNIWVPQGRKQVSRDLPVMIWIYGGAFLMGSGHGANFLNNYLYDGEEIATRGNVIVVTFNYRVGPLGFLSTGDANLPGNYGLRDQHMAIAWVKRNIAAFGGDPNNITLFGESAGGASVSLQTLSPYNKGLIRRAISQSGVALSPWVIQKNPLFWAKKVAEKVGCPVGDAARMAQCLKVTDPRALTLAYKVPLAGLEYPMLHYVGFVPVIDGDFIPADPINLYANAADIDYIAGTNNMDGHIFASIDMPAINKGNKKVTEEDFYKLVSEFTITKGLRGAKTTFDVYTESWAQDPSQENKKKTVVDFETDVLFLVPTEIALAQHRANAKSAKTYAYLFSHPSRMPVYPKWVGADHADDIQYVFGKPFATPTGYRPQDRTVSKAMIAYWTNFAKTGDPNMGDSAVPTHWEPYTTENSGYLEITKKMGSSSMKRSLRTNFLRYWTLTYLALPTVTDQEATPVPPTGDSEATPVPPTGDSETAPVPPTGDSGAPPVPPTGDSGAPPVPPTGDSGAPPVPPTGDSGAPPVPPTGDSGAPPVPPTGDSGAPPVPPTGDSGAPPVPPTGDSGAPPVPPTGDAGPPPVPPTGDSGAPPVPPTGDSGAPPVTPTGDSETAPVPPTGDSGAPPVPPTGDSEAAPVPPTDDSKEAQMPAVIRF
Protocol: as §1

[3] = biological target: T2, human pancreatic triglyceride lipase (52 kDa) (Homo sapiens, UniProt P16233); assay: Triolein hydrolysis by human pancreatic triglyceride lipase (52 kDa); format: biochemical
T2 sequence (P16233 17-465): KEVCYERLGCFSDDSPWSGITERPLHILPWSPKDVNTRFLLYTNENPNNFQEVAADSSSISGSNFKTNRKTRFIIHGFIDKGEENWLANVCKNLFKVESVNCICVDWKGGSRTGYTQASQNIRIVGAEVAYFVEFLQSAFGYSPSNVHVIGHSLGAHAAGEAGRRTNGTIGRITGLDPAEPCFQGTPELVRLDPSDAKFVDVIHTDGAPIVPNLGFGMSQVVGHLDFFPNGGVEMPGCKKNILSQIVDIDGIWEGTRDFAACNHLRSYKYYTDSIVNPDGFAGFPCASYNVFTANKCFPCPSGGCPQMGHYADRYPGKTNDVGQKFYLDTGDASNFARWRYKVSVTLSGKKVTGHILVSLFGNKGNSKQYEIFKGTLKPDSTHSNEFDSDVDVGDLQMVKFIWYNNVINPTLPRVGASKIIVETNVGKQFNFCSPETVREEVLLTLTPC
From the text: (§2) Human pancreatic cholesterol esterase (100 kDa) and human pancreatic triglyceride lipase (52 kDa) were purified to homogeneity (Examples 1 and 3), and their abilities to cleave triglycerides and cholesteryl esters were compared. […] Virtually the same results were found with cholesteryl esters; the 100 kDa enzyme cleaved cholesterol oleate at a rate at least 490-fold greater than that found for the 52 kDa triglyceride lipase.

[4] = biological target: T3, human pancreatic cholesterol esterase (100 kDa) (Homo sapiens, UniProt P19835); assay: Triolein hydrolysis by human pancreatic cholesterol esterase (100 kDa); format: biochemical
T3 construct: from tissue; host or cells: human pancreas (autopsy)
T3 sequence (P19835 21-753): T1 sequence (P19835 21-753)
From the text: as §2

[5] = biological target: T1, human pancreatic cholesterol esterase; assay: Elution of human pancreatic cholesterol esterase bound to heparin immobilized on Sepharose; format: binding; details: 5 mg/ml chondroitin sulfate
[6] = tested on: small intestine membrane vesicles (membrane-bound heparin); assay: Binding of 125I-labeled bovine pancreatic enzymes to small intestine membrane vesicles; details: 125I-labeled bovine pancreatic enzyme, 1% Blotto
Protocol: as §1, with “Exogenous heparin inhibits the interaction and binding of pancreatic choleserol esterase to small intestine vesicles prepared from proximal small intestine segments homogenized in 10 mM Tris-Cl, pH 7.2, and centrifuged at 48,000 X g for 45 minutes. Vesicles” for “Vesicles”, “After the 15 minute incubation at 37°, the reaction was quenched and the assay mixtures were filtered through wells of a Millipore system containing 0.2 micron pore filters presoaked in buffer.” left out, “Specific binding is defined as the difference between total bound dpm and nonspecific-bound dpm (converted to moles bound by dividing by the SRA).” left out

[7] = Cholesterol ester synthesis versus hydrolysis by the 52K form; format: biochemical, human
Protocol: Human pancreatic cholesterol esterase (52K form) can be isolated as follows. Cytosol prepared as above from 30 g pancreas is dialyzed versus 10 mM Tris-Cl, 50 mM benzamidine, pH 8.2 and then chromatographed over DEAE cellulose (2.6×25 cm). Unlike the higher molecular weight forms of cholesterol esterase which bind under these conditions, the 52K species rapidly passes through DEAE cellulose at pH 8.2, with a 40-fold purification and 80% yield. Subsequent chromatography over hydroxylapatite and heparin-Sepharose yields a homogeneous protein (SDS-PAGE, M.W.=52K) with enzymatic activity expressed principally in the synthetic direction for cholesterol esters (rate of synthesis/rate of hydrolysis=10/1). This species also cross-reacts in western blotting to anti-cholesterol esterase antibodies.

CaCo cells = assay: Cellular uptake of [14C]oleate from [14C]triolein; format: cell-based; details: at eight hours
Protocol: Confluent monolayers of 2×10^6 CaCo cells (Example 5b) were incubated with 2 mM taurocholate and with [^14 C]triolein (5 uM) embedded in phosphatidylcholine vesicles. In the absence of triglyceride lipase, cellular uptake of [^14 C] oleate was linear and at eight hours was 204 pmol. In the presence of human triglyceride lipase (25 nM) and colipase (400 nM), uptake was brisk, reaching 706 pmol at eight hours. Moreover, enzyme-mediated uptake was also dependent on the presence of colipase in the medium, since uptake was only 229 pmol at eight hours in its absence. Heparin (400 uM) added to medium containing triglyceride lipase and colipase reduced uptake from 706 pmol to 329 pmol at eight hours. Thus, heparin decreased cellular uptake of oleate (oleic acid) from cleaved triglyceride by 75%.

For [Cl-].[Na+] [NaCl, reference compound], the “effect on specific binding of 125I-cholesterol esterase to vesicles” value ([1]; isotonic saline) was “no effect”, the “displacement of cholesterol esterase from vesicles” value ([2]; 150 mM NaCl) was “ineffective” and the “inhibition of triolein hydrolysis by the 52 kDa enzyme” value ([3]; 0.15 M NaCl) was 68%. The “effect on triolein hydrolysis by the 100 kDa esterase” value ([4]; 0.15 M NaCl) was “unaffected”.

For chondroitin sulfate, the “decrease of specific binding of 125I-cholesterol esterase to vesicles” value ([1]; 0.5 to 100-fold molar excesses) was “less than 10%”, the “displacement of cholesterol esterase from vesicles” value ([2]; 10 mg/ml chondroitin sulfate) was “ineffective” and the “elution of bound enzyme from heparin-Sepharose” value [5] was “completely ineffective”.

For “phospholipase A2: bovine pancreatic phospholipase A2 radiolabeled with Na125I”, the “binding to small intestine membrane vesicles / membrane-bound heparin” value [6] was “do not bind”.

B1: colipase: cofactor protein added to triglyceride lipase (protein, UniProt P04118 23-112, looked up)
Colipase: GIIINLENGELCMNSAQCKSNCCQHSSALGLARCTSMASENSECSVKTLYGIYYKCPCERGLTCEGDKTIVGSITNTNFGICHDAGRSKQ
For B1, the “stimulation of triolein hydrolysis by the 52 kDa enzyme” value ([3]; 10-fold excess of colipase) was 375% and the “effect on triolein hydrolysis by the 100 kDa esterase” value ([4]; 50-fold molar excess of colipase) was “unaffected”.

B2: Human pancreatic cholesterol esterase (52K form): 52K protein isolated as in Example 3; called triglyceride lipase in Example 10 (protein, UniProt P16233 17-465, looked up)
Pancreatic triacylglycerol …: T2 sequence (P16233 17-465)
With B2 the “rate of synthesis/rate of hydrolysis of cholesterol esters” value [7] was 10/1, the “rate of triolein hydrolysis” value ([3]; homogeneous 52 kDa enzyme) was 27 nmol/hr/g pancreas and the “cellular uptake of [14C]oleate” value (CaCo cells; human triglyceride lipase 25 nM and colipase 400 nM) was 706 pmol. For the same molecule, the “cellular uptake of [14C]oleate” value (CaCo cells; triglyceride lipase in the absence of colipase) was 229 pmol.
